Measurements published in patent publication US4265885A, “Anthracyclines containing branched-chain amino-deoxy sugars” (Farmitalia Carlo Erba S.p.A., priority 1978, dated 1981).
Values after ≈ are worked out from the molar mass of the structure shown. Read-outs that look alike come from different tables or passages of the source.

Columns and labels:
[1] = Toxic deaths in mice treated in the P 388 leukemia test; format: in vivo; details: as hydrochloride
Procedure: (§1) The new anthracycline glycosides described in the invention, display antitumor activity. The compounds have been tested against HeLa cells "in vitro" (time of exposure to the drugs: 24 hours) and on P 388 leukemia in mice in comparison with daunorubicin and doxorubicin. The results of the "in vitro" tests, shown in Table I are reported as ID50 (Inhibiting Dose 50% in ng/ml).
(§2) The antitumor activity was tested "in vivo" on P 388 leukemia in comparison with daunorubicin and doxorubicin.
(§3) ^(a) Mice were treated i.p. on day 1 after tumor cell inoculation.

HeLa cells = assay: Activity on HeLa cells viability in vitro; format: cell-based; details: Homo sapiens, read-out: ID50 (Inhibiting Dose 50%)
P 388 leukemia = assay: Activity against P 388 leukemia in mice (survival); format: in vivo; details: as hydrochloride
Procedure: as §1, §2, §3
^(b) Median survival time of treated mice, over median survival time

[2] = dose 4.4 mg/kg i.p. on day 1 after tumor cell inoculation
[3] = dose 6.6 mg/kg i.p. on day 1 after tumor cell inoculation
[4] = dose 10.0 mg/kg i.p. on day 1 after tumor cell inoculation
[5] = HeLa cells viability in vitro, time of exposure to the drugs: 24 hours, compounds as hydrochloride
[6] = dose 22.5 mg/kg i.p. on day 1 after tumor cell inoculation
[7] = dose 33.7 mg/kg i.p. on day 1 after tumor cell inoculation
[8] = dose 50.5 mg/kg i.p. on day 1 after tumor cell inoculation
[9] = dose 2.9 mg/kg i.p. on day 1 after tumor cell inoculation

Structure (SMILES)	No. of toxic deaths/total [1, 2]	No. of toxic deaths/total [1, 3]	No. of toxic deaths/total [1, 4]	IC50 (HeLa cells; [5])	T/C (median survival time of treated mice over median survival time of control × 100) (P 388 leukemia; [2])	T/C (median survival time of treated mice over median survival time of control × 100) (P 388 leukemia; [3])	T/C (median survival time of treated mice over median survival time of control × 100) (P 388 leukemia; [4])	No. of toxic deaths/total [1, 6]	No. of toxic deaths/total [1, 7]	No. of toxic deaths/total [1, 8]	T/C (median survival time of treated mice over median survival time of control × 100) (P 388 leukemia; [6])	T/C (median survival time of treated mice over median survival time of control × 100) (P 388 leukemia; [7])	T/C (median survival time of treated mice over median survival time of control × 100) (P 388 leukemia; [8])	No. of toxic deaths/total [1, 9]	IC50 (HeLa cells; HeLa, 24 h)	T/C (median survival time of treated mice over median survival time of control × 100) (P 388 leukemia; [9])
COc1cccc2c1C(=O)c1c(O)c3c(c(O)c1C2=O)C[C@@](O)(C(=O)CO)C[C@@H]3O[C@H]1C[C@H](N)[C@](C)(OC)[C@H](C)O1 [4'-C-Methyl-4'-O-methyl-adriamycin]	0/10	0/10	2/17	0.005 µg/mL (≈ 0.00875 µM)	165%	172%	202%	–	–	–	–	–	–	–	–	–
COc1cccc2c1C(=O)c1c(O)c3c(c(O)c1C2=O)C[C@@](O)(C(C)=O)C[C@@H]3O[C@H]1C[C@H](N)[C@](C)(OC)[C@H](C)O1 [4'-C-methyl-4'-O-methyl-daunorubicin (V), 4'-C-Methyl-4'-O-methyl-daunomycin]	–	0/18	–	0.034 µg/mL (≈ 0.0612 µM)	–	140%	–	0/20	0/26	1/5	155%	150%	137%	–	–	–
COc1cccc2c1C(=O)c1c(O)c3c(c(O)c1C2=O)C[C@@](O)(C(=O)CO)C[C@@H]3O[C@H]1C[C@H](N)[C@@](C)(OC)[C@H](C)O1 [4'-Epi-4'-C-methyl-4'-O-methyl-adriamycin]	0/8	0/8	0/8	0.027 µg/mL (≈ 0.0472 µM)	165%	185%	205%	–	–	–	–	–	–	–	–	–
COc1cccc2c1C(=O)c1c(O)c3c(c(O)c1C2=O)C[C@@](O)(C(C)=O)C[C@@H]3O[C@H]1C[C@H](N)[C@@](C)(OC)[C@H](C)O1 [4'-Epi-4'-C-methyl-4'-O-methyl-daunomycin]	–	0/8	0/8	0.0025 to 0.0034 µg/mL (≈ 0.0045 to 0.00612 µM)	–	140%	147%	0/8	–	–	150%	–	–	–	–	–
COc1cccc2c1C(=O)c1c(O)c3c(c(O)c1C2=O)C[C@@](O)(C(C)=O)C[C@@H]3O[C@H]1C[C@H](N)[C@H](O)[C@H](C)O1 [Daunorubicin, reference compound]	3/48	28/48	–	–	161%	156%	–	–	–	–	–	–	–	0/48	0.01 µg/mL (≈ 0.019 µM)	163%
COc1cccc2c1C(=O)c1c(O)c3c(c(O)c1C2=O)C[C@@](O)(C(=O)CO)C[C@@H]3O[C@H]1C[C@H](N)[C@H](O)[C@H](C)O1 [Doxorubicin, reference compound]	0/28	0/28	5/28	–	190%	201%	241%	–	–	–	–	–	–	–	0.01 µg/mL (≈ 0.0184 µM)	–
